Data as given in patent US6943171B2, “Polycyclic guanine derivative phosphodiesterase V inhibitors” (Schering Corporation, priority 2001, dated 2005).

Target: PDE V isoenzyme (Homo sapiens, UniProt O76074)
Test: PDE V isoenzyme inhibition (PDE V IC50)
Format: biochemical
Conditions: bound printed as 'about <'
Source text: The compounds of the invention can be useful for inhibiting PDE V isoenzymes. Isoenzyme activity (potency) and isoenzyme selectivity for a compound can be evaluated in a number of ways. […] Similarly, an IC50 value may be obtained for other PDE isoenzymes, such as the PDE VI isoenzyme. Isoenzyme selectivity in this respect may be defined as the activity (potency) of a PDE inhibitor compound for a particular PDE isoenzyme as opposed to another PDE isoenzyme, for example, the activity of a compound to inhibit a PDE V isoenzyme compared to the activity of the same compound to inhibit a PDE VI isoenzyme.

| SMILES | IC50 [nM] |
| --- | --- |
| CCN1C(=O)c2c(nc(OC)n2Cc2ccc(O)c(Cl)c2)N2C1=N[C@@H]1CCC[C@@H]12 [Compound 6] | < 4.1 |
| CCN1C(=O)c2c(nc(OC)n2Cc2ccc(O)cc2)N2C[C@@H](Cc3ccccc3)N=C12 [Compound 8] | < 2.5 |
| CCN1C(=O)c2c(nc(Cl)n2Cc2ccc(O)cc2)N2C[C@@H](Cc3ccccc3)N=C12 [Compound 15] | < 4.1 |
| CCN1C(=O)c2c(nc(OC)n2Cc2ccc(O)c(Cl)c2)N2C[C@@H](Cc3ccccc3)N=C12 [Compound 17] | < 1.6 |
| CCN1C(=O)c2c(nc(Br)n2Cc2ccc(O)c(Cl)c2)N2C[C@@H](Cc3ccc(F)cc3)N=C12 [Compound 21] | < 2.2 |
| CCN1C(=O)c2c(nc(Br)n2Cc2ccc(O)c(Br)c2)N2C1=N[C@@H]1CCC[C@@H]12 [Compound 4] | < 1.6 |
| CCOc1nc2c(n1Cc1ccc(O)c(Br)c1)C(=O)N(CC)C1=N[C@H](Cc3ccccc3F)CN12 [Compound 22] | < 4.1 |
| CCN1C(=O)c2c(nc(Br)n2Cc2ccc(O)c(Cl)c2)N2C[C@@H](Cc3ccccc3)N=C12 [Compound 12] | < 4.1 |
| CCN1C(=O)c2c(nc(Br)n2Cc2ccc(O)c(Br)c2)N2C[C@@H](Cc3ccccc3)N=C12 [Compound 13] | < 4.1 |
| CCOc1nc2c(n1Cc1ccc(O)c(Cl)c1)C(=O)N(CC)C1=N[C@H](Cc3ccccc3)CN12 [Compound 16] | < 1.6 |
| CCN1C(=O)c2c(nc(C(=O)OC)n2Cc2ccc(O)c(Cl)c2)N2C[C@@H](Cc3ccccc3)N=C12 [Compound 11] | < 1.6 |
| CCN1C(=O)c2c(nc(OC)n2Cc2ccc(OC)c(Cl)c2)N2C[C@@H](Cc3ccccc3)N=C12 [Compound 2] | < 1.6 |
| CCOc1nc2c(n1Cc1ccc(OC)c(Cl)c1)C(=O)N(CC)C1=N[C@H](Cc3ccccc3)CN12 [Compound 1] | < 2.2 |
| CCN1C(=O)c2c(nc(Br)n2Cc2ccc(O)c(Br)c2)N2C[C@@H](Cc3cccc(F)c3)N=C12 [Compound 23] | < 4.1 |
| CCN1C(=O)c2c(nc(C(=O)NC)n2Cc2ccc(O)c(Cl)c2)N2C[C@@H](Cc3ccccc3)N=C12 [Compound 9] | < 4.1 |
| CCN1C(=O)c2c(nc(C(N)=O)n2Cc2ccc(O)c(Cl)c2)N2C[C@@H](Cc3ccccc3)N=C12 [Compound 10] | < 4.1 |
| CCN1C(=O)c2c(nc(OC)n2Cc2ccc(O)c(Br)c2)N2C[C@@H](Cc3ccccc3)N=C12 [Compound 18] | < 1.6 |
| CCN1C(=O)c2c(nc(Br)n2Cc2ccc(OC)c(Br)c2)N2C[C@@H](Cc3ccccc3)N=C12 [Compound 1.3.2] | < 4.1 |
| CCN1C(=O)c2c(nc(OC)n2Cc2ccc(OC)c(Br)c2)N2C[C@@H](Cc3ccccc3)N=C12 [Compound 3] | < 4.1 |
| CCN1C(=O)c2c(nc(OC)n2Cc2ccc(O)c(Br)c2)N2C1=N[C@@H]1CCC[C@@H]12 [Compound 5] | < 1.6 |
| CCOc1nc2c(n1Cc1ccc(O)c(Cl)c1)C(=O)N(CC)C1=N[C@H](C(C)C)CN12 [Compound 19] | < 4.1 |
